Laboratory results as given in article PMC11838736 (2025).

Tested on: Doxorubicin aptamer (DNA, aptamer) ACCATCTGTGTAAGGGGTAAGGGGTGGT
Assay: electrochemical aptamer-based sensor, square-wave voltammetry (KDM), Hill fit
Conditions: 37 °C; in serum; apparent; immobilised aptamer; 8 devices

Kd: 5 µM
SMILES: COc1cccc2c1C(=O)c1c(O)c3c(c(O)c1C2=O)C[C@@](O)(C(=O)CO)C[C@@H]3O[C@H]1C[C@H](N)[C@H](O)[C@H](C)O1
